# Source: patent US20030206893A1, “Cell proliferating agents” (priority 2002, published 2003)
# Counter-ions that a name gives are not always drawn.
# Tests used:
# [1] = tested on: human skin fibroblast cell line (normal human dermal fibroblasts, neonatal); test: Proliferative response of plant growth factors on human skin fibroblast cell line, 96-well assay (Cell Titer 96 Aqueous One, absorbance 490 nm); assay type: cell-based; details: 28 hours incubation, serum-free DMEM
# Experimental: The proliferative response of plant growth factors on the human skin fibroblast cell line (Clonetics, Walkersville, Md., normal human dermal fibroblasts, neonatal, Catalog No. CC-2509) was determined in a 96-well assay system using serum-free medium as a control.
# Stock solution of gibberellic acid (Sigma Chemical Company, St. Louis, Mo.) (0.001 M) was prepared in water and then diluted with serum-free Dulbecco's Modified Eagle's Medium (DMEM, Sigma Chemical Co., St. Louis, Mo.) to 10^−5, (“GA2”) and 10^−6 (“GA1”) M solutions. Cells were seeded into 96 well plates at a concentration of 3×10^3 cells in 100 microliters of DMEM containing 10 percent fetal bovine serum (FBS, Sigma Chemical Co., St. Louis, Mo.). Plates were incubated for 24 hours at 37° C. in a humidified, 5 percent CO2 atmosphere. After incubation, the medium was aspirated and the wells were rinsed twice with 100 microliters of serum-free DMEM. The final rinse was aspirated and 100 microliters of the 10^−5 and 10^−6 M of each solution was added to 10 wells. In addition, 100 microliters of vehicle (serum-free DMEM) was added to 10 wells as control. All wells were incubated for 28 hours at 37° C. in a humidified, 5 percent CO2 atmosphere. After incubation, 20 microliters of Cell Titer 96 Aqueous One Solution Reagent (Promega, Corp., Madison, Wis.) was added to all wells. The plates were swirled gently and placed back in the incubator for 45 minutes and spectrophotometric absorbance was read at 490 nm.
# Statistical analysis was done by using one-way ANOVA.
# Kinetin (Spectrum Chemical, CA) 1 mg/ml aqueous solution as supplied by the Company was used as a stock solution. Further dilutions were made with serum-free Dulbecco's Modified Eagle's Medium (DMEM, Sigma Chemical Co., St. Louis, Mo.) to 10^−5, (“K2”) and 10^−6 (“K1”) M solutions. Cells were seeded into 96 well plates at a concentration of 3×10^3 cells in 100 microliters of DMEM containing 10 percent fetal bovine serum (FBS, Sigma Chemical Co., St. Louis, Mo.). Plates were incubated for 24 hours at 37° C. in a humidified, 5 percent CO2 atmosphere. After incubation, the medium was aspirated and the wells were rinsed twice with 100 microliters of serum-free DMEM. The final rinse was aspirated and 100 microliters of the 10^−5 and 10^−6 M of each solution was added to 10 wells. In addition, 100 microliters of vehicle (serum-free DMEM) was added to 10 wells as control. All wells were incubated for 28 hours at 37° C. in a humidified, 5 percent CO2 atmosphere. After incubation, 20 microliters of Cell Titer 96 Aqueous One Solution Reagent (Promega, Corp., Madison, Wis.) was added to all wells. The plates were swirled gently and placed back in the incubator for 45 minutes and spectrophotometric absorbance was read at 490 nm. […]
# [2] = tested on: human fibroblasts; details: reported by S. I. Rattan, Biochem Biophys Res. Comm., 201, 665-672, 1994; cited from earlier work
# [3] = 10^-4, 10^-5 and 10^-6 M solutions, 2x10^3 cells seeded
# [4] = 10^-5 and 10^-6 M solutions, 3x10^3 cells seeded
SMILES,"effect on cell proliferation versus serum-free medium control (one-way ANOVA) [1, 3]","effect on cell proliferation versus serum-free medium control (one-way ANOVA) [1, 4]",effect on onset of aging characteristics in human fibroblasts [2]
"C/C(=C\CNc1ncnc2[nH]cnc12)CO [zeatin, trans-zeatin HCl]",good cell proliferating agent,–,–
CC/C=C\C[C@H]1C(=O)CC[C@@H]1CC(=O)O [jasmonic acid],strong cell proliferating agent,–,–
c1coc(CNc2ncnc3[nH]cnc23)c1 [kinetin],–,good cell proliferating agent,delay the onset of aging characteristics
C=C1C[C@]23C[C@@]1(O)CC[C@H]2[C@@]12C=C[C@H](O)[C@@](C)(C(=O)O1)[C@H]2[C@@H]3C(=O)O [gibberellic acid],–,good cell proliferating agent,–
